Reference: patent publication US20260209215A1, “GLYCINE DERIVATIVES WITH P2X4 RECEPTOR-BLOCKING ACTIVITY AS DIAGNOSTICS AND FOR THE TREATMENT OF PAIN, INFLAMMATION, CANCER, AND OTHER P2X4 RECEPTOR-RELATED DISEASES” (RHEINISCHE-FRIEDRICH-WILHELMS-UNIVERSITÄT BONN, priority 2022, published 2026)

biological target: T1, P2X4 receptor (Homo sapiens, UniProt Q99571); test: Measurement of Ca2+ influx in transfected 1321N1 astrocytoma cells (P2X4 inhibitory potency); assay type: cell-based; details: agonist-mediated Ca2+ influx, FLUO-4, 1321N1 astrocytoma cells; antagonists added 30 min before agonist
T1 construct: expressed in transfected cells; host or cells: 1321N1 astrocytoma cells, retroviral vector pQCXIN, G418 selection, monoclones
T1 sequence (Q99571 1-388): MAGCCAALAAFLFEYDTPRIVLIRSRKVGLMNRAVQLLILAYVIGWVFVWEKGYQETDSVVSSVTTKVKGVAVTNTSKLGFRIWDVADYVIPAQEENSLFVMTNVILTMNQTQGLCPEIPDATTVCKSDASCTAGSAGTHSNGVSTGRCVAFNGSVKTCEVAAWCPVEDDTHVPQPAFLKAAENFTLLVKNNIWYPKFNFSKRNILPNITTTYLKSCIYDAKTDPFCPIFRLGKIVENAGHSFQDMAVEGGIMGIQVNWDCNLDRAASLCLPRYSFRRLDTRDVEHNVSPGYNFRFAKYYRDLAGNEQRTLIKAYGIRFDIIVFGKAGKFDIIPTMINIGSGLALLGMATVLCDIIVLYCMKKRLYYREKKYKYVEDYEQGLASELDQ
Description: The rat, mouse, and human P2X4 DNA, respectively, were cloned into the retroviral vector pQCXIN. 1321N1 Astrocytoma cells were transfected with the DNA using a retroviral system as described previously. In brief, GP+envAM12 packaging cells were first transiently co-transfected with a retroviral vector to generate the retrovirus and with a vesicular stomatitis virus G protein (VSV-G) to pseudotype the virus and to increase their infection efficiency. The viruses containing the rat, mouse or human P2X4 receptor sequence were then used to create a stable astrocytoma cell line. P2X4 receptor-expressing cells were selected with G418 ([…]).
The selection of monoclones for rat and human P2X4 receptors was performed using the limited dilution method by plating the cells at very low cell densities (1 cell clone per well in 96-well plates). Cells were counted, and then several dilutions were made to obtain a concentration of […]. We subsequently added 100 µL of the diluted cell suspension into each well expecting to obtain on average 1 cell per well. After a few days the wells that contained single clones were labeled and transferred into 24 well plates. More than 20 clones were selected for each cell line and characterized in calcium influx assay.
Measurement of Ca^2+ influx in transfected 1321N1 astrocytoma cells
P2X receptor function was determined on the basis of agonist-mediated increases in cytosolic Ca^2+ concentration. The fluorescent Ca^2+chelating dye FLUO-4 was used as an indicator of the relative levels of intracellular Ca^2+ in a 96-well format using a fluorescence imaging plate reader (Novostar, BMG, Germany). Cells were grown to confluence in 96-well black-walled tissue culture plates and loaded with FLUO-4 AM ([…]) in Hank's balanced salt solution (HBSS, containing 10 mM HEPES, pH 7.3, and 1% Pluronic® F127) for 1 h at 23° C. After incubation, the loaded cells were washed with the same buffer to remove extracellular FLUO-4 AM. Compound solutions were prepared in HBSS (containing 20 mM HEPES, pH 7.3) or DMSO depending on their solubility. […] Fluorescence intensity was measured at 520 nm for 30 s at 0.4 s intervals. Buffer or test compounds were injected sequentially into separate wells using the automatic pipetting device. At least three independent experiments were performed in triplicate or duplicate. Antagonists were added 30 min before the addition of agonists. The assays were performed in a final volume of 200 μL. Compounds were tested at 7-8 different concentrations spanning three orders of magnitude of concentrations. Statistical significances were calculated using the unpaired two-tailed t-test.

| IC50 [nM] | Compound |
| --- | --- |
| 70 to 99 | 2-((2-methyl-5-(3-methyl- 1,2,4-oxadiazol-5-yl) phenyl)amino)-1-(1H- pyrrolo[2,3-b]pyridin-3- yl)ethan-1-one [Example 107] |
| 0.1 to 19 | Cc1nsc(-c2ccc(C)c(NCC(=O)N3CCc4c3cccc4C(C)(O)CO)c2)n1 (racemic) [Example 62, 1-(4-(1,2-dihydroxypropan-2-yl)indolin-1-yl)-2-((2-methyl-5-(3-methyl-1,2,4-thiadiazol-5-yl)phenyl)amino)ethan-1-one] |
| > 100 | Cc1nsc(-c2cc(NCC(=O)N3CCc4c3cc(Br)cc4[C@@](C)(O)CO)c(C)cc2Br)n1 (stereo in doubt) [Example 123, 2-((4-bromo-2-methyl-5-(3-methyl-1,2,4-thiadiazol-5-yl)phenyl)amino)-1-(6-bromo-4-(1,2-dihydroxypropan-2-yl)indolin-1-yl)ethan-1-one] |
| 0.1 to 19 | COc1cccc2c1CCN2C(=O)CNc1cc(-c2nc(C)ns2)ccc1C [Example 1, 1-(4-methoxyindolin-1-yl)-2-((2-methyl-5-(3-methyl-1,2,4-thiadiazol-5-yl)phenyl)-amino)ethan-1-one] |
| 0.1 to 19 | COc1cccc2c1CCN2C(=O)CNc1cc(-c2nc(C)no2)ccc1C [Example 2, 1-(4-methoxyindolin-1-yl)-2-((2-methyl-5-(3-methyl-1,2,4-oxadiazol-5-yl)phenyl)-amino)ethan-1-one] |
| 20 to 39 | CCc1noc(-c2ccc(F)c(NCC(=O)N3CCc4cc(OC)c(F)cc43)c2)n1 [Example 3, 2-((5-(3-ethyl-1,2,4-oxadiazol-5-yl)-2-fluorophenyl)amino)-1-(6-fluoro-5-methoxyindolin-1-yl)ethan-1-one] |
| 20 to 39 | COc1ccc(-c2nc(C)ns2)cc1NCC(=O)N1CCc2c(OC)cccc21 [Example 4, 2-((2-methoxy-5-(3-methyl-1,2,4-thiadiazol-5-yl)phenyl)-amino)-1-(4-methoxyindolin-1-yl)ethan-1-one] |
| 20 to 39 | CCn1nnc(-c2ccc(OC)c(NCC(=O)N3CCc4c(OC)cccc43)c2)n1 [Example 5, 2-((5-(2-ethyl-2H-tetrazol-5-yl)-2-methoxyphenyl)amino)-1-(4-methoxyindolin-1-yl)ethan-1-one] |
| 70 to 99 | COc1ccc(-c2nc(C)ns2)cc1NCC(=O)n1ccc2cc(F)ccc21 [Example 6, 1-(5-fluoro-1H-indol-1-yl)-2-((2-methoxy-5-(3-methyl-1,2,4-thiadiazol-5-yl)phenyl)amino-) ethan-1-one] |
| > 100 | CCc1noc(-c2ccc(OC)c(NCC(=O)N3CCc4ccc(C(F)(F)F)cc43)c2)n1 [Example 7, 2-(5-(3-ethyl-1,2,4-oxadiazol-5-yl)-2-methoxyphenylamino)-1-(6-(trifluoromethyl)indolin-1-yl)ethanone] |
| 70 to 99 | COc1cccc2c1CCN2C(=O)CNc1cc(-c2nc(C)ns2)cc(F)c1OC [Example 8, 2-((3-fluoro-2-methoxy-5-(3-methyl-1,2,4-thiadiazol-5-yl)phenyl)amino)-1-(4-methoxyindolin-1-yl) ethan-1-one] |
| 40 to 69 | CCc1noc(-c2ccc(OC)c(NCC(=O)N3CCc4ccc(Br)cc43)c2)n1 [Example 9, 1-(6-bromoindolin-1-yl)-2-((5-(3-ethyl-1,2,4-oxadiazol-5-yl)-2-methoxyphenyl)amino) ethan-1-one] |
| 70 to 99 | Cc1nsc(-c2ccc(C)c(NCC(=O)N3CCc4nc(Cl)ccc43)c2)n1 [Example 10, 1-(5-chloro-2,3-dihydro-1H-pyrrolo[3,2-b]pyridin-1-yl)-2-((2-methyl-5-(3-methyl-1,2,4-thiadiazol-5-yl)phenyl)amino)ethan-1-one] |
| 20 to 39 | CCc1noc(-c2ccc(OC)c(NCC(=O)N3CCc4nc(OC)ccc43)c2)n1 [Example 11, 2-((5-(3-ethyl-1,2,4-oxadiazol-5-yl)-2-methoxyphenyl)amino)-1-(5-methoxy-2,3-dihydro-1H-pyrrolo[3,2-b]pyridin-1-yl)ethan-1-one] |
| 0.1 to 19 | Cc1nsc(-c2ccc(C)c(NCC(=O)N3CCc4c(OCC(C)(C)O)cccc43)c2)n1 [Example 12, 1-(4-(2-hydroxy-2-methylpropoxy)indolin-1-yl)-2-((2-methyl-5-(3-methyl-1,2,4-thiadiazol-5-yl)phenyl)amino)] |
| 0.1 to 19 | Cc1nsc(-c2ccc(C)c(NCC(=O)N3CCc4c3cccc4N3C(=O)CCS3(=O)=O)c2)n1 [Example 13, 2-(1-((2-methyl-5-(3-methyl-1,2,4-thiadiazol-5-yl)phenyl)glycyl)indolin-4-yl) isothiazolidin-3-one 1,1-dioxide] |
| 0.1 to 19 | Cc1ccc(-c2nc(Br)ns2)cc1NCC(=O)N1CCc2c(OCC(C)(C)O)cccc21 [Example 14] |
| 0.1 to 19 | C#Cc1nsc(-c2ccc(C)c(NCC(=O)N3CCc4c(OC)cccc43)c2)n1 [Example 15, 2-((5-(3-ethynyl-1,2,4-thiadiazol-5-yl)-2-methylphenyl)amino)-1-(4-methoxyindolin-1-yl)ethan-1-one] |
| 0.1 to 19 | Cc1nsc(-c2ccc(C)c(NCC(=O)N3CCc4c(OCCCO)cccc43)c2)n1 [Example 16, 1-(4-(3-hydroxypropoxy)indolin-1-yl)-2-((2-methyl-5-(3-methyl-1,2,4-thiadiazol-5-yl)phenyl)amino) ethan-1-one] |
| 0.1 to 19 | Cc1nsc(-c2ccc(C)c(NCC(=O)N3CCc4c3cccc4N3C(=O)CCC3=O)c2)n1 [Example 17, 1-(1-((2-methyl-5-(3-methyl-1,2,4-thiadiazol-5-yl)phenyl)glycyl)indolin-4-yl) pyrrolidine-2,5-dione] |
| 0.1 to 19 | C=Cc1nsc(-c2ccc(C)c(NCC(=O)N3CCc4c(OCCOCCO)cccc43)c2)n1 [Example 18, 1-(4-(2-(2-hydroxyethoxy)ethoxy)indolin-1-yl)-2-((2-methyl-5-(3-vinyl-1,2,4-thiadiazol-5-yl)phenyl)amino) ethan-1-one] |
| 0.1 to 19 | CCc1nsc(-c2ccc(C)c(NCC(=O)N3CCc4c(OCCOCCO)cccc43)c2)n1 [Example 19, 2-((5-(3-ethyl-1,2,4-thiadiazol-5-yl)-2-methylphenyl)amino)-1-(4-(2-(2-hydroxyethoxy)ethoxy)indolin-1-yl)ethan-1-one] |
| 0.1 to 19 | CCc1nsc(-c2ccc(C)c(NCC(=O)N3CCc4c(NS(C)(=O)=O)cccc43)c2)n1 [Example 20, N-(1-((5-(3-ethyl-1,2,4-thiadiazol-5-yl)-2-methylphenyl)glycyl)indolin-4-yl) methanesulfonamide] |
| 0.1 to 19 | CCc1nsc(-c2ccc(F)c(NCC(=O)N3CCc4c(C(C)O)cccc43)c2)n1 (stereo not shown) [Example 21, 2-((5-(3-ethyl-1,2,4-thiadiazol-5-yl)-2-fluorophenyl)amino)-1-(4-(1-hydroxyethyl)indolin-1-yl)ethan-1-one] |
| 0.1 to 19 | Cc1nsc(-c2ccc(C)c(NCC(=O)N3CCc4c3cccc4C(C)(C)O)c2)n1 [Example 22, 1-(4-(2-hydroxypropan-2-yl)indolin-1-yl)-2-((2-methyl-5-(3-methyl-1,2,4-thiadiazol-5-yl)phenyl)amino)ethan-1-one] |
| 0.1 to 19 | Cc1nsc(-c2ccc(C)c(NCC(=O)N3CCc4c(N5CCC6(CC5)COC6)cccc43)c2)n1 [Example 23, 1-(4-(2-oxa-7-azaspiro[3.5]nonan-7-yl)indolin-1-yl)-2-((2-methyl-5-(3-methyl-1,2,4-thiadiazol-5-yl)phenyl)-amino)ethan-1-one] |
| 0.1 to 19 | Cc1nsc(-c2ccc(N3CCCC3)c(NCC(=O)N3CCc4c(OCC(C)(C)O)cccc43)c2)n1 [Example 24, 1-(4-(2-hydroxy-2-methylpropoxy)indolin-1-yl)-2-((5-(3-methyl-1,2,4-thiadiazol-5-yl)-2-(pyrrolidin-1-yl)phenyl)-amino)ethan-1-one] |
| 0.1 to 19 | Cc1noc(-c2ccc(C)c(NCC(=O)N3CCc4c(N5CCC(O)C5)cccc43)c2)n1 (stereo not shown) [Example 25, 1-(4-(3-hydroxy-pyrrolidin-1-yl)indolin-1-yl)-2-((2-methyl-5-(3-methyl-1,2,4-oxadiazol-5-yl)phenyl)amino)ethan-1-one] |
